Data on 13 compounds can be found in ChEMBL document CHEMBL2203135, “Novel progesterone receptor modulators: 4-aryl-phenylsulfonamides” (Bioorg Med Chem Lett, 2012).

The structures appear in SMILES notation.

For one series, the target named is T1, Progesterone receptor (Homo sapiens, UniProt P06401).
T1 sequence (P06401 whole entry): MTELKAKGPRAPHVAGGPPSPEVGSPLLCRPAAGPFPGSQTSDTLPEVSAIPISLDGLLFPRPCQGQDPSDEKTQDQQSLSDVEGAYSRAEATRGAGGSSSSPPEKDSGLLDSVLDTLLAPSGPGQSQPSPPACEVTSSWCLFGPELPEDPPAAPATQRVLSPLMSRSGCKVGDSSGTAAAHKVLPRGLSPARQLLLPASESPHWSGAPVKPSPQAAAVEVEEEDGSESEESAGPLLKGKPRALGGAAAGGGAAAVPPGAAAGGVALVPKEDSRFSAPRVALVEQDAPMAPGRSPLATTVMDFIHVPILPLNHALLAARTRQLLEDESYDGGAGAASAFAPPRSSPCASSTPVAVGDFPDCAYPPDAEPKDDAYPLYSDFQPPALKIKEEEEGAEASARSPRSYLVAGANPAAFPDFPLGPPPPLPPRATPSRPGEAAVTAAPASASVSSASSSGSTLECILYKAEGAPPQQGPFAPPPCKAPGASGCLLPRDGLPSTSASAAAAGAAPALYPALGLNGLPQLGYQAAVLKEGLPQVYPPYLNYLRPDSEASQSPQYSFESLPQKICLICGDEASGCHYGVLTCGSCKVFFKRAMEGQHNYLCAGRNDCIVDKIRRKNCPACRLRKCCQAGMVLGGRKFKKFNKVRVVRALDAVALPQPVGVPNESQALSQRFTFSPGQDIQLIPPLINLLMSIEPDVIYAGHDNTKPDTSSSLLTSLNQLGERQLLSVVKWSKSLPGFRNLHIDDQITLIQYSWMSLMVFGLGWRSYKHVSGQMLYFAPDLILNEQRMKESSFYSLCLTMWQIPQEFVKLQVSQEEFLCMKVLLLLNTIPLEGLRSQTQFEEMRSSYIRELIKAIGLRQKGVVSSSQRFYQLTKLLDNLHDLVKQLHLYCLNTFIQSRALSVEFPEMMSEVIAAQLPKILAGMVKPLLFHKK
Nature of the series: Antagonist activity against progesterone receptor in human T47D cells by alkaline phosphatase assay. It is filed as functional, cell-based.

The nature of series [1]: AUC (0 to infinity) in rat at 20 mg/kg, po administered as single dose. It is filed as ADME, organism-based. Set-up: time infinity, dose 20 mg/kg, route oral. Conditions: plasma.
Series [2] can be described thus: Cmax in rat at 20 mg/kg, po administered as single dose. Further details: dose 20 mg/kg, route oral. Conditions: in vivo. It counts as ADME, organism-based.
Series [3] has as its system Salmonella typhimurium. Nature of the series: Mutagenicity in Salmonella typhimurium in presence of liver S9 fraction by non-GLP Ames test. It counts as toxicity, organism-based. Conditions: salmonella enterica subsp. enterica serovar typhimurium. For orientation: The Ames test detects mutagens through reverse mutation in bacteria.
A short description of series [4]: Half life in rat at 20 mg/kg, po administered as single dose. It is filed as ADME, organism-based. Set-up: dose 20 mg/kg, route oral. Conditions: in vivo.
In series [5] the test system is Salmonella typhimurium. In words: Mutagenicity in Salmonella typhimurium in absence of liver S9 fraction by non-GLP Ames test. It counts as toxicity, organism-based. Conditions: salmonella enterica subsp. enterica serovar typhimurium.
Series [6] deals with T2, Progesterone receptor (Homo sapiens) (UniProt P06401).
T2 sequence (whole entry): T1 sequence (P06401 whole entry)
In words: Antagonist activity against progesterone receptor in human T47D cells at 3 uM by alkaline phosphatase assay. It is filed as functional, cell-based.

For `Cn1c(C#N)ccc1-c1ccc(NS(C)(=O)=O)c(C#N)c1`, the IC50 (usually the concentration at which inhibition is half-maximal) against Progesterone receptor is > 3000 nM.
At Progesterone receptor, `CCS(=O)(=O)Nc1ccc(-c2ccc(C#N)n2C)cc1` registered an IC50 of 9 nM. Also, the AUC(0-inf) – broadly, the area under the concentration-time curve extrapolated to infinity – in series [1] is 12300 ng·h/mL. Further, the Cmax (usually the peak of the concentration-time curve) in series [2] was 6.7 µM. In addition, the Activity result in the series on Salmonella typhimurium [3] is “Toxic”; in the series with Salmonella typhimurium [5] it was “Non-toxic”. In addition, in series [4], the half-life (usually the time in which the quantity being followed falls by half) was 2.5 h.
`CCS(=O)(=O)Nc1ccc(-c2ccc(C#N)n2C)c(C#N)c1` registered an IC50 against Progesterone receptor of 128 nM.
The compound `CCS(=O)(=O)Nc1ccc(-c2ccc(C#N)n2C)c(F)c1` returned an IC50 at Progesterone receptor of 6 nM.
On the same count and under the same terms, under `CCCS(=O)(=O)Nc1ccc(-c2ccc(C#N)n2C)cc1` stands 10 nM; under `CCS(=O)(=O)Nc1cc(F)c(-c2ccc(C#N)n2C)cc1F`, 57 nM.
As for `Cc1ccc(S(=O)(=O)Nc2ccc(-c3ccc(C#N)n3C)cc2)cc1`, the inhibition (commonly the share of the control response that was lost under treatment) in series [6] amounted to 55%.
For the compound `CC(=O)Nc1ccc(-c2ccc(C#N)n2C)cc1`, at Progesterone receptor, the IC50 amounted to 75 nM. Also, the area under the curve AUC(0-inf) in series [1] came to 1640 ng·h/mL. In addition, the concentration in series [2] peaked (Cmax) at 0.7 µM. The half-life in series [4] was 5 h.
Compound `Cn1c(C#N)ccc1-c1ccc(NS(C)(=O)=O)cc1` registered a concentration for half-maximal inhibition (IC50) against Progesterone receptor of 8 nM. In other words, the single-digit nanomolar range.
`Cn1c(C#N)ccc1-c1ccc(N)cc1` came in with an AUC(0-inf) in series [1] of 3080 ng·h/mL. This compound also returned a Cmax in series [2] of 3.2 µM. For the same compound, the Activity result in the series on Salmonella typhimurium [3] was “Toxic”. The compound also had a half-life in series [4] of 2.5 h.
Regarding `CC(C)c1ccc(S(=O)(=O)Nc2ccc(-c3ccc(C#N)n3C)cc2)cc1`, the inhibition in series [6] was determined as 54%.
As for `Cn1c(C#N)ccc1-c1ccc(NS(C)(=O)=O)cc1F`, the IC50 against Progesterone receptor amounted to 8 nM. In addition, the Activity entry with Salmonella typhimurium [3] and with Salmonella typhimurium [5] was “Non-toxic” each time.
On to `CCS(=O)(=O)Nc1ccc(-c2ccc(C#N)n2C)c(C(F)(F)F)c1`, for which half-maximal inhibition against Progesterone receptor (IC50) required 12 nM. Moreover, in the series with Salmonella typhimurium [3], the Activity entry is on record as “Non-toxic”.
